Assay [1] has as its system L. mexicana ∆lpg2 promastigotes (lacking LPG and PPG). Put plainly: alamarBlue viability assay, ∆lpg2 mutant promastigotes. It counts as cell-based, Leishmania mexicana. The note with it: for ED50 L. mexicana ∆lpg2: ∆lpg2 mutant promastigotes, alamarBlue viability vs DMSO control, 2–100 µM peptide, 1 h preincubation serum-free at 26 °C, then 24 h, mean (range) of at least 3 independent experiments in triplicate. The procedure: (§1) Figure 2 Activity of the temporin peptides against ∆lpg1 and ∆lpg2 promastigote L. mexicana. Using the alamarBlue® assay system, L. mexicana ∆lpg1 (A) and ∆lpg2 (B) mutant promastigote viability in the presence of various concentrations (2–100 µM) of the temporin peptides was determined with respect to a DMSO control. Amphotericin B (2–100 µM) was utilized as a positive control. Data points represent the mean of 3 independent experiments performed in triplicate. Standard deviation indicated. Cell viability <50% indicated by red bars.
Proteophosphogylcans (PPGs) are a large range of secreted and cell surface associated parasite glycoconjugates which, like LPG, carry a negative charge. Both axenic and intramacrophage L. mexicana amastigotes lack cell surface associated PPG, although the intracellular parasites do secrete a form of PPG known as aPPG [26, 27]. Targeted deletion of lpg2, a Golgi GDP-Man transporter, to create ∆lpg2 [25] prevented the formation of the phosphoglycan repeats that make up the backbone of LPG and PPG leaving the promastigote surface devoid of these negatively charged macromolecules. […] Like the temporins, amphotericin B is a pore forming compound [28].
(§2) Leishmania mexicana (MNYC/BZ/62/M379) wild type and LPG mutant parasites (∆lpg1 [23] and ∆lpg2 [25]) were maintained at 26 °C in Schneider’s Drosophila media (Sigma Aldrich) supplemented with heat inactivated foetal bovine sera (15% for promastigotes and mutants, and 20% for amastigotes; Biosera). Promastigotes were transformed into axenic amastigotes by a pH and temperature shift as previously described. Cells were counted using a Neubauer Improved Haemocytometer. Cytotoxicity analyses were performed in 96-well plates (Costar, Corning Inc., Amsterdam, The Netherlands) using alamarBlue® (Life Technologies, Paisley, UK) with some modifications to the published, optimized protocol. Briefly, to mitigate against the effects of serum on the efficacy of the peptides, promastigote and amastigote L. mexicana were preincubated (26 °C for promatastigotes; 33 °C for amastigotes) with the temporins (2–100 µM) in 10 µL of serum-free media at 4 × 10^6 mL^−1 for 1 h before the addition of 90 µL of complete media. Following incubation at the appropriate temperature for 24 h, 10 µL of alamarBlue® was added to each well and the plates incubated for a further 4 h prior to assessing cell viability using a fluorescent plate reader (Biotek UK, Potton, UK; 560EX nm/600EM nm). All data points were in triplicate, with amphotericin B as positive and DMSO as negative controls. All of the experiments described above were carried out on a minimum of three separate occasions to ensure a robust data set was collected.
In general terms: Resazurin is reduced to fluorescent resorufin, in cell work by metabolically active cells.

The test system of assay [2] is L. mexicana promastigote (wild type). Kind of assay: alamarBlue viability assay, wild type promastigotes. The format is cell-based, Leishmania mexicana (MNYC/BZ/62/M379). The note with it: alamarBlue viability vs DMSO control, 2–100 µM peptide, 1 h preincubation in serum-free media at 26 °C, then complete media 24 h, alamarBlue 4 h, fluorescence, mean (range) of at least 3 independent experiments in triplicate. The procedure: (§3) Figure 1 Activity of the temporin peptides against wild type promastigote and amastigote L. mexicana. Using the alamarBlue® assay system, L. mexicana promastigote (A) and amastigote (B) viability in the presence of various concentrations (2–100 µM) of the temporin peptides was determined with respect to a DMSO control. Amphotericin B (2–100 µM) was utilized as a positive control. Data points represent the mean of 3 independent experiments performed in triplicate. Standard deviation indicated. Cell viability <50% indicated by red bars.
as §2

For assay [3], the system named is L. donovani LPG mutant. The following applies: similar, less defined LPG mutant; cited from earlier work. An excerpt:
Previously it has been postulated that LPG, which forms a thick negatively charged layer, protects the promatigote parasite from cationic AMPs by capturing them and preventing interaction with the cell surface. […] To t ...

For assay [4], the system named is L. mexicana amastigote. Put plainly: alamarBlue viability assay, axenic amastigotes. The format is cell-based, Leishmania mexicana (MNYC/BZ/62/M379). The note with it: for ED50 L. mexicana Amastigote: alamarBlue viability vs DMSO control, 2–100 µM peptide, 1 h preincubation in serum-free media at 33 °C, then complete media 24 h, alamarBlue 4 h, fluorescence, mean (range) of at least 3 independent experiments in triplicate. The method, then: as §3, §2

Assay [5] has as its system L. pifanoi axenic amastigotes. The following applies: cited from earlier work. An excerpt:
(§4) L. infantum is an Old World species and a member of the L. donovani complex, causing visceral disease in the Mediterranean basin, which has subsequently spread to Latin America where it is sometimes known as L. chagasi. Like L. mexicana, L. pifanoi is a New World species, however it is part of the subgenus Viannia whereas L. mexicana is part of the subgenus Leishmania which actually makes it ...

Assay [6] deals with L. mexicana ∆lpg1 promastigotes (lacking LPG). Put plainly: alamarBlue viability assay, ∆lpg1 mutant promastigotes. It counts as cell-based, Leishmania mexicana. The following applies: alamarBlue viability vs DMSO control, 2–100 µM peptide, 1 h preincubation serum-free at 26 °C, then 24 h, mean (range) of at least 3 independent experiments in triplicate. The method, then: Previously it has been postulated that LPG, which forms a thick negatively charged layer, protects the promatigote parasite from cationic AMPs by capturing them and preventing interaction with the cell surface. […] To test this hypothesis the five temporins were assayed for their activity against L. mexicana promastigotes engineered to lack LPG, ∆lpg1 [23]. […] The results obtained were perhaps surprising, with the temporins showing little or no difference in efficacy against the ∆lpg1 mutant when compared with the wild type L. mexicana promastigotes (Figure 1A and Figure 2A; Table 2). However, it is notable the that efficacy of temporins A and B have previously been reported to be unchanged against a similar, although less defined, L. donovani LPG mutant.
as §1, §2

Assay [7] relates to L. infantum axenic amastigotes. The note with it: cited from earlier work.
From the text: as §4

Turning to `C[C@@H]1[C@H](O)[C@@H](C)/C=C/C=C/C=C/C=C/C=C/C=C/C=C/[C@H](O[C@@H]2O[C@H](C)[C@@H](O)[C@H](N)[C@@H]2O)C[C@@H]2O[C@](O)(C[C@@H](O)C[C@@H](O)[C@H](O)CC[C@@H](O)C[C@@H](O)CC(=O)O[C@H]1C)C[C@H](O)[C@H]2C(=O)O` [amphotericin B, Amphotericin B, reference compound], in assay [1] (positive control, 2–100 µM, alamarBlue, Figure 2B), the “efficacy against ∆lpg2 compared with wild type promastigotes” value is “less effective”.

Turning to “FLPLIGRVLSGIL-NH2 [Temporin A, amphibian-derived temporin antimicrobial peptide, […]-NH2]”, the results for the “ED50 L. mexicana Promastiogte” value in assay [2] and in assay [2] (listed as temporin A) were 8 (6–14) µM and 8 µM, respectively. The “ED50 L. mexicana ∆lpg2” value in assay [1] is given as 26 (21–39) µM; in assay [1] (listed as temporin A) it was 26 µM. Besides, the “efficacy against L. donovani LPG mutant” value in assay [3] is recorded as “unchanged”. Further, the “ED50 L. mexicana Amastigote” value in assay [4] is listed as ~100 µM; in assay [4] (listed as temporin A) it was “approximately 100 µM”. Also, in assay [5], the “activity against axenic amastigotes of L. pifanoi” value is “significant activity”. The “ED50 L. mexicana ∆lpg1” value in assay [6] was 11 (8–16) µM.

As to “FLSGIVGMLGKLF-NH2 [Temporin 1Sa, amphibian-derived temporin antimicrobial peptide, […]-NH2]”, the “ED50 L. mexicana Promastiogte” value in assay [2] is recorded as 4 (3–13) µM; in assay [2] (listed as temporin 1Sa), 4 µM. Also, the “ED50 L. mexicana ∆lpg2” value was 31 (28–35) µM in assay [1] and 31 µM in assay [1] (listed as 1Sa). In addition, the “ED50 L. mexicana Amastigote” value in assay [4] is reported as 42 (35–44) µM; in assay [4] (listed as 1Sa) it was 42 µM. Also, the “activity against axenic amastigotes of L. infantum” value in assay [7] was “significant activity”. In assay [6], the “ED50 L. mexicana ∆lpg1” value is reported as 6 (3–18) µM.

For “FVQWFSKFLGRIL-NH2 [Temporin L, amphibian-derived temporin antimicrobial peptide, …-NH2]”, the “ED50 L. mexicana Promastiogte” value in assay [2] is recorded as 5 (5–6) µM; in assay [2] (listed as L), 5 µM. The “ED50 L. mexicana ∆lpg2” value in assay [1] is 9 (8–12) µM; in assay [1] (listed as L) it was 9 µM. Also, the “ED50 L. mexicana Amastigote” value in assay [4] was 83 (46–93) µM; in assay [4] (listed as L), 83 µM. For the same compound, the “ED50 L. mexicana ∆lpg1” value in assay [6] is reported as 4 (3–6) µM.

For the compound “LLPIVGNLLKSLL-NH2 [Temporin B, amphibian-derived temporin antimicrobial peptide, […]-NH2]”, the “ED50 L. mexicana Promastiogte” value was 38 (24–64) µM in assay [2] and 38 µM in assay [2] (listed as temporin B). Moreover, in assay [1], the “ED50 L. mexicana ∆lpg2” value is recorded as 41 (40–41) µM. Further, in assay [3], the “efficacy against L. donovani LPG mutant” value is reported as “unchanged”. In addition, the “activity against amastigote form at the maximal concentration tested” value in assay [4] (100 µM, alamarBlue) was “inactive”. Also, the “ED50 L. mexicana Amastigote” value in assay [4] is given as >100 µM. Also, in assay [5], the “activity against axenic amastigotes of L. pifanoi” value is reported as “significant activity”. Also, the “ED50 L. mexicana ∆lpg1” value in assay [6] was 39 (28–70) µM.

The values above are taken from article PMC6272152, “The Role of Phosphoglycans in the Susceptibility of Leishmania mexicana to the Temporin Family of Anti-Microbial Peptides” (Molecules, 2015).
